According to paper PMC12067093, “Discovery and optimisation of a covalent ligand for TRIM25 and its application to targeted protein ubiquitination” (Chemical Science, 2025):

Target: T1, TRIM25 PRYSPRY and BRD4 BD2 ternary complex (Homo sapiens, UniProt O60885+Q14258)
T1 construct: made in house; host or cells: Sf9 insect cells (TRIM25 PRYSPRY)
Assay: Recombinant protein ternary complex pull-down
Format: binding
Details: TRIM25 PRYSPRY pre-labelled with compound 50 μM overnight, intermediate wash step, then BRD4 BD2
Method: 3 25 mM HEPES, 50 mM NaCl for 20 h at 4 °C, before purification by gel filtration into
4 buffer 20 mM Bis-Tris pH 7.5, 150 mM NaCl, 0.5 mM TCEP. Commercially available
5 sitting drop crystallization screens were dispensed at 20 °C using an automated
6 Mosquito machine (TTP Labtech). Crystals grew from a pre-labelled protein-ligand
8 drops containing 100 nL protein-ligand complex and 100 nL reservoir solution. For X-
9 ray data acquisition, crystals were cryoprotected with perfluoropolyether cryo oil
10 (Hampton Research, HR2-814). Diffraction data were collected on beamline I04 (λ =
11 0.9537 Å) at Diamond Light Source (Oxford, UK), processed using DIALS17 and
12 merged and scaled using AIMLESS.18 The structure of the complex was solved by
13 molecular replacement using the available TRIM25 PRYSPRY structure (6FLM)10 as
15 in Coot20 and refined using Refmac21 and Phenix.19 Coordinates and structure factors
16 are deposited in the Protein Data Bank under accession code 9I0T. Further details on
17 data collection and refinement statistics are summarised in Supplementary Table 1.
20 Recombinant TRIM25 PRYSPRY (100 µM) in 25 mM HEPES pH 7.5, 50 mM NaCl,
23 acquired with Topspin (Bruker) at timepoint 0 (immediately after mixing protein with
24 compound), and after 4 h incubation.
26 Recombinant protein ternary complex pull-down assays
27 His10-TRIM25 or His6-TRIM25 PRYSPRY (4 µM) was pre-labelled with either DMSO
28 (1%) or heterobifunctional compounds (HB1, HB2 or HB3, 50 µM, 1% DMSO) and
29 captured on His Mag Sepharose Ni magnetic beads, and washed once to remove
30 excess unreacted compound, as described above.
32 Substrate (BRD4 or BRD4 BD2) (4 µM, assuming 1:1 with on-bead captured TRIM25-
33 compound complex) was added to the on-bead captured TRIM25-compound complex,
1 and incubated in capture buffer 50 mM Tris pH 7.5, 150 mM NaCl, 5 mM MgCl2, 20 mM
2 imidazole, 0.5 mM TCEP, 0.5% IGEPAL for 2 h at 4 °C, with rotation. Beads were
3 washed three times with 500 µL capture buffer, and mixed with 12 µL NuPAGE LDS
4 sample buffer (1x, Invitrogen, NP0007). Samples were analysed by SDS-PAGE and […]

T1 sequence (Q14258 435-630, other chains not shown): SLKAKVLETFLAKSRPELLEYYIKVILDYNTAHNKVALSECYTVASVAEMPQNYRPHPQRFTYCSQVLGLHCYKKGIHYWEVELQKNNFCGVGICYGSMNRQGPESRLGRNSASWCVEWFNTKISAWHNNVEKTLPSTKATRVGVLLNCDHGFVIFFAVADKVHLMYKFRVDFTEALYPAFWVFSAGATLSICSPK

In vitro ternary complex formation (pull-down), Ternary complex formation was observed:
Cc1cc(C(=O)N2CCCN(C(=O)CCl)CC2)ccc1-c1cccc(C(=O)NCCOCCOCCOCCNC(=O)C[C@@H]2N=C(c3ccc(Cl)cc3)c3c(sc(C)c3C)-n3c(C)nnc32)c1 [HB2]
Cc1cc(C(=O)N2CCCN(C(=O)CCl)CC2)ccc1-c1cccc(C(=O)NCCOCCOCCNC(=O)C[C@@H]2N=C(c3ccc(Cl)cc3)c3c(sc(C)c3C)-n3c(C)nnc32)c1 [HB1]
Cc1cc(C(=O)N2CCCN(C(=O)CCl)CC2)ccc1-c1cccc(C(=O)NCCOCCOCCOCCOCCNC(=O)C[C@@H]2N=C(c3ccc(Cl)cc3)c3c(sc(C)c3C)-n3c(C)nnc32)c1 [HB3]
